Results reported in PubChem BioAssay AID248 (DTP/NCI, 2004).
“And” between values parts separate entries of the source, which are not always exact repeats. Equal entries are not always repeated. Inconclusive results and toxic doses are left out.

System: L1210 leukemia ip in BDF1 mice, survival T/C
Test: NCI In Vivo Anticancer Drug Screen. Data for tumor model L1210 Leukemia (intraperitoneal) in B6D2F1 (BDF1) mice
Conditions: endpoint: mean survival time, higher = longer survival
How it was run: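 Antitumor effect is assessed in tumor-bearing animals. Survival in the compound arm is compared with a vehicle-dosed control arm and expressed as their quotient.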

[1] = dose: 100.0 mg/kg/injection, schedule: Q01DX009 (ip), vehicle: Klucel (hydroxypropylcellulose) (HPC)
[2] = dose: 200.0 mg/kg/injection, schedule: Q01DX009 (ip), vehicle: Klucel (hydroxypropylcellulose) (HPC)
[3] = dose: 400.0 mg/kg/injection, schedule: Q01DX009 (ip), vehicle: Klucel (hydroxypropylcellulose) (HPC)
[4] = dose: 50.0 mg/kg/injection, schedule: Q01DX001 (ip), vehicle: saline
[5] = dose: 100.0 mg/kg/injection, schedule: Q01DX001 (ip), vehicle: saline
[6] = dose: 200.0 mg/kg/injection, schedule: Q01DX001 (ip), vehicle: saline
[7] = dose: 400.0 mg/kg/injection, schedule: Q01DX001 (ip), vehicle: saline
[8] = dose: 100.0 mg/kg/injection, schedule: Q04DX003 (ip), vehicle: Klucel (hydroxypropylcellulose) (HPC)
[9] = dose: 50.0 mg/kg/injection, schedule: Q01DX001 (ip), vehicle: carboxymethylcellulose (CMC)
[10] = dose: 100.0 mg/kg/injection, schedule: Q01DX001 (ip), vehicle: carboxymethylcellulose (CMC)
[11] = dose: 200.0 mg/kg/injection, schedule: Q01DX001 (ip), vehicle: carboxymethylcellulose (CMC)
[12] = dose: 100.0 mg/kg/injection, schedule: Q01DX009 (ip), vehicle: saline with Tween-80
[13] = dose: 25.0 mg/kg/injection, schedule: Q01DX009 (ip), vehicle: Klucel (hydroxypropylcellulose) (HPC)
[14] = dose: 50.0 mg/kg/injection, schedule: Q01DX009 (ip), vehicle: Klucel (hydroxypropylcellulose) (HPC)
[15] = dose: 25.0 mg/kg/injection, schedule: Q04DX003 (ip), vehicle: Klucel (hydroxypropylcellulose) (HPC)

In the case of O=C(O)c1ccc(SCc2ccccc2)cc1, the T/C [1] is reported as 103 % of control, the T/C [2] is reported as 101 % of control and the T/C [3] is reported as 93 % of control.

For COc1ccc(O)c(CCCO)c1, the T/C [4] was 104 % of control, the T/C [5] was 95 % of control and the T/C [6] was 112 % of control. For the same compound, the T/C [7] was 95 % of control.

With CN(C)c1ccc(C=O)c(Br)c1 the T/C [1] was 96 % of control, the T/C [8] was 96 % of control and the T/C [2] was 91 % of control. The T/C (dose: 200.0 mg/kg/injection, schedule: Q04DX003 (ip), vehicle: Klucel (hydroxypropylcellulose) (HPC)) was 111 % of control, the T/C [3] was 103 % of control and the T/C (dose: 400.0 mg/kg/injection, schedule: Q04DX003 (ip), vehicle: Klucel (hydroxypropylcellulose) (HPC)) was 100 % of control.

In the case of O=C1CSC(=S)N1c1ccc2c(c1)OCO2, the T/C (dose: 100.0 mg/kg/injection, schedule: Q04DX003 (ip), vehicle: saline) is reported as 94 % of control, the T/C (dose: 200.0 mg/kg/injection, schedule: Q04DX003 (ip), vehicle: saline) is reported as 90 % of control and the T/C (dose: 400.0 mg/kg/injection, schedule: Q04DX003 (ip), vehicle: saline) is reported as 95 % of control.

CCC(CC)(CCN(C)C)c1ccccc1 was tested, and the T/C [9] was 98 % of control, the T/C [10] was 98 % of control and the T/C [11] was 104 % of control.

In the case of CCCCNC(=O)c1cc(NC(=O)c2ccc(C(=O)Nc3cc(C(=O)NCCCC)cc(C4N=CCN4)c3)cc2)cc(C2=NCCN2)c1 (stereo unspecified), the T/C (dose: 5.0 mg/kg/injection, schedule: Q01DX015 (ip), vehicle: methylcellulose (MC)) is reported as 86 % of control, the T/C (dose: 20.0 mg/kg/injection, schedule: Q01DX015 (ip), vehicle: methylcellulose (MC)) is reported as 86 % of control and the T/C (dose: 40.0 mg/kg/injection, schedule: Q01DX015 (ip), vehicle: methylcellulose (MC)) is reported as 91 % of control. The T/C (dose: 62.0 mg/kg/injection, schedule: Q01DX015 (ip), vehicle: methylcellulose (MC)) was 100 % of control.

In the case of Oc1ccccc1C=Nc1ccccc1O.[Zn+2], the T/C (dose: 100.0 mg/kg/injection, schedule: Q01DX001 (ip), vehicle: other) is reported as 94 % of control, the T/C (dose: 200.0 mg/kg/injection, schedule: Q01DX001 (ip), vehicle: other) is reported as 91 % of control and the T/C (dose: 400.0 mg/kg/injection, schedule: Q01DX001 (ip), vehicle: other) is reported as 91 % of control.

In the case of Cc1cc(C(N)=O)c(C(N)=O)c(=O)[nH]1, the T/C (dose: 75.0 mg/kg/injection, schedule: Q01DX001 (ip), vehicle: water) is reported as 97 % of control and the T/C (dose: 150.0 mg/kg/injection, schedule: Q01DX001 (ip), vehicle: water) is reported as 92 % of control.

In the case of CCN(CC)S(=O)(=O)c1cccc([N+](=O)[O-])c1, the T/C [12] is reported as 99 % of control.

With C=C1C(=O)OCC2(CC)CCCCC12 (stereo unspecified) the T/C (dose: 20.0 mg/kg/injection, schedule: Q01DX009 (ip), vehicle: saline with Tween-80) was 103 % of control, the T/C (dose: 40.0 mg/kg/injection, schedule: Q01DX009 (ip), vehicle: saline with Tween-80) was 106 % of control and the T/C (dose: 80.0 mg/kg/injection, schedule: Q01DX009 (ip), vehicle: saline with Tween-80) was 91 % of control. The T/C (dose: 160.0 mg/kg/injection, schedule: Q01DX009 (ip), vehicle: saline with Tween-80) was 98 % of control.

N#Cc1nc(C#N)c(C#N)nc1C#N was tested, and the T/C (dose: 6.25 mg/kg/injection, schedule: Q01DX009 (ip), vehicle: Klucel (hydroxypropylcellulose) (HPC)) was 105 % of control, the T/C (dose: 12.5 mg/kg/injection, schedule: Q01DX009 (ip), vehicle: Klucel (hydroxypropylcellulose) (HPC)) was 100 % of control and the T/C [13] was 94 % of control. The T/C [14] was 97 % of control.

In the case of O=[N+]([O-])c1ccc(N/N=C\c2c(Cl)c(Cl)c(/C=N/Nc3ccc([N+](=O)[O-])cc3)c(Cl)c2Cl)cc1, the T/C [4] is reported as 91 % of control, the T/C [5] is reported as 91 % of control and the T/C [6] is reported as 94 % of control. The T/C [7] was 94 % of control.

In the case of CCOC(=O)C(C(=O)CC(C)C)C(C)C (stereo unspecified), the T/C [4] is reported as 103 % of control, the T/C [5] is reported as 103 % of control and the T/C [6] is reported as 109 % of control. The T/C [7] was 101 % of control.

In the case of Nc1cc([N+](=O)[O-])cc([N+](=O)[O-])c1, the T/C [9] is reported as 109 % of control, the T/C [10] is reported as 118 % of control and the T/C [11] is reported as 113 % of control.

For COC1=NS(=O)(=O)C2CCCC/C=C\C2O1 (stereo unspecified), the T/C (dose: 150.0 mg/kg/injection, schedule: Q04DX002 (ip), vehicle: Klucel (hydroxypropylcellulose) (HPC)) was 110 % of control and the T/C (dose: 300.0 mg/kg/injection, schedule: Q04DX002 (ip), vehicle: Klucel (hydroxypropylcellulose) (HPC)) was 103 % of control.

For Cc1ccc(N=C=Nc2ccc(C)cc2)cc1, the T/C [15] was 105 % of control, the T/C (dose: 50.0 mg/kg/injection, schedule: Q04DX003 (ip), vehicle: Klucel (hydroxypropylcellulose) (HPC)) was 97 % of control and the T/C [8] was 90 % of control.

With Cc1nc2ncnc(Cl)c2[nH]1 the T/C [5] was 103 % of control, the T/C [6] was 106 % of control and the T/C [7] was 100 % of control.

For c1ccc(CCN2CCCC2)nc1, the T/C (dose: 12.5 mg/kg/injection, schedule: Q04DX002 (ip), vehicle: saline with Tween-80) was 103 % of control and the T/C (dose: 25.0 mg/kg/injection, schedule: Q04DX002 (ip), vehicle: saline with Tween-80) was 98 % of control.

With Cc1cc([N+](=O)[O-])c2ccccc2c1N the T/C [12] was 117 % of control, the T/C (dose: 200.0 mg/kg/injection, schedule: Q01DX009 (ip), vehicle: saline with Tween-80) was 98 % of control and the T/C (dose: 400.0 mg/kg/injection, schedule: Q01DX009 (ip), vehicle: saline with Tween-80) was 105 % of control.

CC(=O)OCCN1CCN(CCCN2c3ccccc3Sc3ccc(C(F)(F)F)cc32)CC1 was tested, and the T/C (dose: 9.5 mg/kg/injection, schedule: Q04DX003 (ip), vehicle: saline with Tween-80) was 114 % of control, the T/C (dose: 12.5 mg/kg/injection, schedule: Q04DX003 (ip), vehicle: saline) was 106 % of control and the T/C (dose: 22.0 mg/kg/injection, schedule: Q04DX003 (ip), vehicle: saline with Tween-80) was 120 % of control and 123 % of control. The T/C (dose: 25.0 mg/kg/injection, schedule: Q04DX003 (ip), vehicle: saline) was 116 % of control, the T/C (dose: 33.0 mg/kg/injection, schedule: Q04DX003 (ip), vehicle: saline sonified) was 93 % of control and the T/C (dose: 33.3 mg/kg/injection, schedule: Q04DX003 (ip), vehicle: saline with Tween-80) was 102 % of control. The T/C (dose: 50.0 mg/kg/injection, schedule: Q04DX003 (ip), vehicle: saline with Tween-80) was 150 % of control and the T/C [5] was 106 % of control.

CN(C)N=Nc1ccc2[nH]ncc2c1 was tested, and the T/C (dose: 14.5 mg/kg/injection, schedule: Q01DX009 (ip), vehicle: Klucel (hydroxypropylcellulose) (HPC)) was 123 % of control, the T/C (dose: 16.5 mg/kg/injection, schedule: Q04DX003 (ip), vehicle: Klucel (hydroxypropylcellulose) (HPC)) was 100 % of control and the T/C [13] was 114 % of control. The T/C [15] was 107 % of control, the T/C (dose: 33.0 mg/kg/injection, schedule: Q01DX009 (ip), vehicle: Klucel (hydroxypropylcellulose) (HPC)) was 152 % of control and the T/C (dose: 37.5 mg/kg/injection, schedule: Q04DX003 (ip), vehicle: Klucel (hydroxypropylcellulose) (HPC)) was 117 % of control. The T/C [14] was 119 % of control and the T/C (dose: 100.0 mg/kg/injection, schedule: Q01DX001 (ip), vehicle: Klucel (hydroxypropylcellulose) (HPC)) was 111 % of control.

CC(=O)CC(C)(C)S(=O)(=O)O was tested, and the T/C [5] was 100 % of control, the T/C [6] was 100 % of control and the T/C [7] was 100 % of control.

For O=C(/C=C(\OB(F)F)c1ccccc1)c1ccccc1, the T/C [9] was 102 % of control, the T/C [10] was 94 % of control and the T/C [11] was 100 % of control. For the same compound, the T/C (dose: 400.0 mg/kg/injection, schedule: Q01DX001 (ip), vehicle: carboxymethylcellulose (CMC)) was 90 % of control.

For COc1ccc(/C=C2\N=C(c3cc(OC)c(OC)c(OC)c3)OC2=O)cc1, the T/C (dose: 100.0 mg/kg/injection, schedule: Q04DX002 (ip), vehicle: Klucel (hydroxypropylcellulose) (HPC)) was 95 % of control, the T/C (dose: 200.0 mg/kg/injection, schedule: Q04DX002 (ip), vehicle: Klucel (hydroxypropylcellulose) (HPC)) was 98 % of control and the T/C (dose: 400.0 mg/kg/injection, schedule: Q04DX002 (ip), vehicle: Klucel (hydroxypropylcellulose) (HPC)) was 88 % of control.

In the case of OC1CCCN(Cc2ccccc2)C1 (stereo unspecified), the T/C [5] is reported as 107 % of control and the T/C [6] is reported as 96 % of control.

In the case of COc1ccc(CCN=C2C3CC4CC(C3)CC2C4)cc1OC, the T/C [5] is reported as 98 % of control, the T/C [6] is reported as 98 % of control and the T/C [7] is reported as 103 % of control.

With CCC(Cl)C(=O)Nc1ccccc1 (stereo unspecified) the T/C [4] was 96 % of control, the T/C [5] was 108 % of control and the T/C [6] was 102 % of control. For the same compound, the T/C [7] was 104 % of control.
